Measured values as given in the NIST ThermoML archive (doi:10.1021/je9003959).

Assay: refractive index (Na D-line) (dimensionless); xn = mol fraction of the nth substance listed
Conditions: 101 kPa, Liquid, Standard Abbe refractometry

CCN1CCCC1=O [1-ethyl-2-pyrrolidinone] + O
refractive index
Conditions	293 K	298 K	303 K	313 K	323 K
x1 = 0.022	1.35197	1.35144	1.34954	1.3488	1.34707
x1 = 0.05	1.37085	1.37012	1.3694	1.36692	1.36431
x1 = 0.1	1.39584	1.39478	1.39291	1.39022	1.38757
x1 = 0.2	1.42603	1.42432	1.42304	1.41887	1.41711
x1 = 0.3	1.44127	1.43983	1.43715	1.4331	1.42913
x1 = 0.4	1.44975	1.44776	1.44605	1.4418	1.43762
x1 = 0.5	1.4551	1.45307	1.45147	1.44694	1.44273
x1 = 0.6	1.45859	1.45647	1.45435	1.45035	1.44622
x1 = 0.7	1.46118	1.459	1.4568	1.4527	1.44864
x1 = 0.8	1.46326	1.46096	1.4586	1.45496	1.45075
x1 = 0.9	1.46478	1.4623	1.46016	1.45641	1.45217
x1 = 1	1.46461	1.46192	1.45791	1.45415	1.45147
